Measurements from patent US12564639B2, “Cationic nanostructures for intra-cartilage delivery of contrast agents and diagnostic uses thereof” (Northeastern University, priority 2019, dated 2026).

Legend:
[1] = IA 40 mg every 3 months for 2 years; cited from earlier work
[2] = Zeta potential (Zetasizer Nano-ZS90); format: physicochemical; details: for Zeta potential (ζ): nanopure water, 0.45 mg/mL, Mean ± SD
From the text: • 1. Use the procedure in Section F to conjugate 4 moles of biotin-PEG-IOX with Avidin at its biotin binding sites to synthesize mAv-IOX. • 2. Use Zetasizer Nano-ZS90 to detect the zeta potential of unmodified Avidin and mAv-IOX in DI water; the zeta potential (Q, mV) of Avidin and mAv-IOX should be around 18.3±0.5 mV and 8.69±0.7 mV, respectively. • 3. Obtain 3 mm diameter×1 mm height cylindrical cartilage discs with intact superficial zone (SZ) from femoropatellar grooves of 1-2-week-old bovine knee joints and freeze them in PBS containing protease inhibitors (PI) until further use. • 4. […] Use a freezing point osmometer to balance the osmolality of these contrast agent solutions to 400±20 mOsm/kg by adding 1 M sodium chloride solution dropwise. • 5. […] Secure cartilage explants using low X-ray-absorption foam inside a 20.5 mm CT scan tube. Ensure that the cartilage explant stays secured in the foam during CT imaging. • 7. Take one of the equilibrated cartilage explants from contrast agent solution and gently using Kimwipes to remove solution from the tissue surface. • 8. Set CT35 with an isotropic voxel resolution of 10 μm, 70 kVp tube voltage, 113 μA current, and 200 ms integration time method. The CT data will be saved as DICOM format. ImageJ software will automatically display Hounsfield Unit (HU) by importing DICOM images. • 9. Process the CT imaging data acquired from CT35 using ImageJ software: (i) Go to Image→Stacks→Images to Stack to convert CT imaging data to a cartilage stack. (ii) Go to Image→Stacks→Reslice and select ‘starting at top’ to acquire a new stack showing vertical section of cartilage from superficial zone (SZ) to deep zone (DZ). […] The GAG content (mg/mg wet weight) is calculated as: […]
PEGylation of Avidin in 1:2 and 1:4 mAv was further confirmed by using H-Class Acquity UPLC (Waters Corp, Milford, MA) equipped with an Acquity UPLC BEH200 Size Exclusion Column (200 Å, 1.7 μm column, 4.6×300 mm) with 20 mM ammonium bicarbonate buffer as the mobile phase at 0.2 mL/min. Avidin was detected at 280 nm. […]

[3] = Hydrodynamic diameter estimated from molecular weight (Stokes-Einstein equation); format: physicochemical
From the text: As such, its intra-cartilage transport diffusivities (estimated using setup in FIG. 3A) were not affected either (Table 1). The hydrodynamic diameter of Avidin and mAv was estimated from their molecular weights using the Stokes-Einstein equation. The net size of mAv was within the 10 nm limit enabling it to penetrate through the full thickness of cartilage similar to unmodified Avidin.

[4] = rabbit, in vivo; cited from earlier work
[5] = system: bovine cartilage explants; details: cited from earlier work
[6] = Equilibrium uptake in cartilage explants (uptake ratio Ru); details: 50% GAG depleted cartilage (mid-stage OA)
Protocol: Cartilage explants were harvested from the femoropatellar groove of 2-3-week-old bovine knees (Research 87, Boylston, MA) with a 3 mm diameter biopsy punch. The cylindrical plugs were then sliced to obtain the superficial 1 mm layer of cartilage, and frozen until use. […] Cartilage disks were equilibrated in 300 μL of 8.5 μM of labeled Avidin, 1:2 mAv or 1:4 mAv in presence of protease inhibitors for 24 h in a 96-well plate at 37° C. on gentle shaking to prevent formation of stagnant layers. To minimize evaporation, the empty wells in the plate were filled with DI water and the plate was wrapped in parafilm. At the end of the experiment, the surfaces of each disk were quickly blotted with Kimwipes and the wet weight was measured. The equilibrium bath fluorescence was measured using a plate reader (Synergy H1, Biotek). The final concentration was calculated based on a linear calibration correlating fluorescence to concentration of labeled Avidin. The moles of solutes absorbed into the cartilage were calculated using the difference between the initial and equilibrium concentration of the bath. The concentration of solutes inside was calculated by normalizing the number of moles inside cartilage to the wet weight of the tissue. The uptake ratio (Ru) was defined as the ratio of the concentration of solutes inside the tissue (Ctissue) to that of the solute in the equilibrium bath (Cbath). […]

[7] = Intra-cartilage diffusion kinetics (non-equilibrium one-dimensional diffusion, transport chamber); details: 3 μM upstream, 400-600 μm cartilage disk; Mean ± SD
Protocol: The interior walls of the transport chamber were equilibrated in 0.5% nonfat-dried bovine milk solution in PBS for 15 min to lessen non-specific binding of solutes to inner walls of the transport chamber. Subsequently, the compartments of chamber were rinsed with DI water. 3 μM solution of labeled Avidin or mAv was added to the upstream chamber. A 6 mm diameter cartilage disk of 400-600 μm thickness was placed between the upstream and downstream compartments. Concentration of fluorescently labeled solutes in the downstream chamber was measured over time by exciting the downstream solution using a 480 nm laser line and detecting the emission. Non-equilibrium diffusion curves were thereby obtained by plotting normalized downstream concentration (CD) to upstream concentration (Cu) over time. Effective Diffusivity (DEFF), which is the diffusivity of solutes in cartilage while binding interactions exist within the tissue was estimated as follows:
[formula] where L corresponds to cartilage thickness, and τLag is the time it takes to reach a steady state flux. τLag was estimated using the time-axis intercept of the linear slope of the normalized concentration versus time.

[8] = system: IL-1α treated cartilage explants; experiment: IL-1α treated cartilage explant culture OA model: GAG loss (DMMB assay); format: cell-based, bovine; details: 16-day culture
From the text: Tissue explants for all treatment conditions were matched for depth and location to prevent any bias. […] Note that mAv here refers to 1:4 mAv configuration. Media was changed every 2 days and IL-1α was replenished at each medium change. […] IL-1α concentration was chosen as it represents a moderately aggressive cytokine treatment. […] After 16 days of culture, cartilage explants were weighed and digested in proteinase K. The cumulative GAGs released to the media and residual GAGs in the digested explants were measured using the DMMB assay. Nitrite content was measured using the Griess assay as an indicator of nitric oxide (NO) release from tissues. Equal volumes of Griess reagent and culture media collected every two days were mixed and incubated at room temperature for 15 min, and absorbance at 540 nm was measured using a plate reader. Sodium nitrite was used as a standard.

[9] = system: IL-1α treated cartilage explants; experiment: IL-1α treated cartilage explant culture OA model: nitrite release (Griess assay); format: cell-based, bovine; details: continuous dose 100 nM, Day 8
Protocol: 3 mm diameter cartilage explants harvested from calf knee joints were equilibrated separately in serum free culture media containing 96.2% low-glucose DMEM, 1.0% HEPES, 1.0% NEAA, 1.0% PSA, 0.4% proline and 0.4% ascorbic acid for 48 h at 37° C., 5% CO2 for 2 days prior to treatment. Tissue explants for all treatment conditions were matched for depth and location to prevent any bias. To test the biological effectiveness of mAv-Dex, equilibrated cartilage explants were treated with or without IL-1α (2 ng/mL) for 16 days in combination with (i) a single dose of 100 nM free Dex, (ii) a continuous dose of 100 nM free Dex, (iii) a single dose of 10 μM free Dex (iv) a single dose of fast release mAv-Dex (10 μM Dex) or (v) a single dose of controlled release mAv-Dex (2:1:1) (10 μM Dex). […]
After 16 days of culture, cartilage explants were weighed and digested in proteinase K. The cumulative GAGs released to the media and residual GAGs in the digested explants were measured using the DMMB assay. Nitrite content was measured using the Griess assay as an indicator of nitric oxide (NO) release from tissues. Equal volumes of Griess reagent and culture media collected every two days were mixed and incubated at room temperature for 15 min, and absorbance at 540 nm was measured using a plate reader. […]

[10] = system: chondrocytes in cartilage explants; experiment: IL-1α treated cartilage explant culture OA model: chondrocyte viability (FDA/PI); format: cell-based; details: Day 16
Protocol: (§1) 3 mm diameter cartilage explants harvested from calf knee joints were equilibrated separately in serum free culture media containing 96.2% low-glucose DMEM, 1.0% HEPES, 1.0% NEAA, 1.0% PSA, 0.4% proline and 0.4% ascorbic acid for 48 h at 37° C., 5% CO2 for 2 days prior to treatment. Tissue explants for all treatment conditions were matched for depth and location to prevent any bias. To test the biological effectiveness of mAv-Dex, equilibrated cartilage explants were treated with or without IL-1α (2 ng/mL) for 16 days in combination with (i) a single dose of 100 nM free Dex, (ii) a continuous dose of 100 nM free Dex, (iii) a single dose of 10 μM free Dex (iv) a single dose of fast release mAv-Dex (10 μM Dex) or (v) a single dose of controlled release mAv-Dex (2:1:1) (10 μM Dex). To evaluate the effect of mAv carrier alone on cartilage health, a high one-time dose of 10 μM mAv, which is 10× higher than that used to deliver 10 μM Dex in condition (v) above, was also tested in the absence of IL-1α. Note that mAv here refers to 1:4 mAv configuration. Media was changed every 2 days and IL-1α was replenished at each medium change. […] IL-1α concentration was chosen as it represents a moderately aggressive cytokine treatment.
Chondrocyte viability was analyzed by staining cartilage explants with FDA (4.0 mg/mL) and PI (10.0 mg/mL) for live (green) and dead (red) cells, respectively. Slices were washed with PBS and imaged at 4× magnification (Nikon Eclipse Ts2R). The live and dead images were overlaid using ImageJ. At the end of the culture, tissue explants were incubated with media containing 1× resazurin sodium salt (alamarBlue assay) for 3 h in dark at 37° C. and 5% CO2. Cell metabolic activity was estimated by measuring fluorescence at 530 nm excitation and 590 nm emission wavelengths.

[11] = system: chondrocytes in cartilage explants; experiment: IL-1α treated cartilage explant culture OA model: chondrocyte metabolism (alamarBlue); format: cell-based; details: Day 16
Protocol: 3 mm diameter cartilage explants harvested from calf knee joints were equilibrated separately in serum free culture media containing 96.2% low-glucose DMEM, 1.0% HEPES, 1.0% NEAA, 1.0% PSA, 0.4% proline and 0.4% ascorbic acid for 48 h at 37° C., 5% CO2 for 2 days prior to treatment. Tissue explants for all treatment conditions were matched for depth and location to prevent any bias. To test the biological effectiveness of mAv-Dex, equilibrated cartilage explants were treated with or without IL-1α (2 ng/mL) for 16 days in combination with (i) a single dose of 100 nM free Dex, (ii) a continuous dose of 100 nM free Dex, (iii) a single dose of 10 μM free Dex (iv) a single dose of fast release mAv-Dex (10 μM Dex) or (v) a single dose of controlled release mAv-Dex (2:1:1) (10 μM Dex). To evaluate the effect of mAv carrier alone on cartilage health, a high one-time dose of 10 μM mAv, which is 10× higher than that used to deliver 10 μM Dex in condition (v) above, was also tested in the absence of IL-1α. Note that mAv here refers to 1:4 mAv configuration. […]
Chondrocyte viability was analyzed by staining cartilage explants with FDA (4.0 mg/mL) and PI (10.0 mg/mL) for live (green) and dead (red) cells, respectively. […] Cell metabolic activity was estimated by measuring fluorescence at 530 nm excitation and 590 nm emission wavelengths.

[12] = system: IL-1α treated cartilage explants; experiment: IL-1α treated cartilage explant culture OA model: Safranin-O histology; format: cell-based, bovine; details: 16 days
Protocol: as §1
Cartilage explants were fixed in 4% formalin, embedded in 0.75% agarose for ease of handling, dehydrated in a graded series of ethanol and xylenes, and embedded in paraffin. Transverse sections (to obtain full thickness cartilage slices with superficial and deep zones) were taken at 5 μm thickness. These sections were stained with 0.5% Safranin O, 0.02% Fast Green and Weigert's iron hematoxylin for GAG detection. Adjacent sections underwent antigen retrieval using 0.1% hyaluronidase, 0.1% pronase in PBS for 30 min at 37° C., then were immunostained for type II collagen using 1 μg/mL mouse IgG1 (clone II-II6B3) or normal mouse IgG1 as isotype control. Antibody detection was performed using a VectaStain Elite ABC kit with 3,3-diaminobenzidine staining. Stained sections were imaged using a Zeiss Axioplan2 equipped with an AxioCam HRc camera.

[13] = multiple IA injections, 2.5 mg every 3 days or 0.5 mg/kg; cited from earlier work
[14] = one week following ACLT, read at 3 weeks, vs free Dex; cited from earlier work
[15] = system: chondrocytes; details: incubation with chondrocytes in culture; cited from earlier work

CC1(C)O[C@@H]2C[C@H]3[C@@H]4CCC5=CC(=O)C=C[C@]5(C)[C@@]4(F)[C@@H](O)C[C@]3(C)[C@]2(C(=O)CO)O1 [TCA, triamcinolone acetonide]
cartilage loss [1]: greater cartilage loss compared to saline

Avidin: cationic glycoprotein with four biotin binding sites
zeta potential ([2]; in DI water, 'should be around'): around 18.3±0.5 mV | Zeta potential (ζ) [2]: 18.3 ± 0.5 mV | Diameter (net size) [3]: ~7.0 nm | intra-cartilage uptake ratio [4]: 180 | presence in cartilage after IA administration [4]: present through the full thickness of cartilage two weeks following its IA administration | Avidin dose shown not to affect GAG loss, chondrocyte viability or biosynthesis rates [5]: less than 100 μM | drop of uptake following 50% GAG depletion compared to healthy condition [6]: 13.2 × | intra-cartilage effective diffusivity DEFF [7]: 8.4 ± 2.0 × 10^−8 cm^2/s

C[C@@H]1C[C@H]2[C@@H]3CCC4=CC(=O)C=C[C@]4(C)[C@@]3(F)[C@@H](O)C[C@]2(C)[C@@]1(O)C(=O)CO [Dex, dexamethasone]
suppression of IL-1α induced GAG loss ([8]; continuous dose 100 nM): effectively suppress IL-1α induced GAG loss | suppression of IL-1α induced GAG loss ([8]; single dose 100 nM): not effective | suppression of IL-1α induced GAG loss ([8]; single dose 10 μM Dex): significantly suppressed IL-1α induced GAG loss | lower nitrite levels compared to single dose of 100 nM Dex [9]: 3.5 × | rescue of chondrocyte viability ([10]; continuous dose 100 nM): rescued effectively | rescue of chondrocyte viability ([10]; single dose 100 nM): not with a single dose | rescue of chondrocyte viability ([10]; single dose 10 μM Dex, listed as free Dex): not as effective | rescue of IL-1α reduced cell metabolism rates [11]: not rescued | Safranin-O GAG staining ([12]; continuous dose 100 nM): mostly rescued | Safranin-O GAG staining ([12]; single dose 100 nM): marginally affected | Safranin-O GAG staining ([12]; single dose 10 μM Dex): protected GAG content to a greater extent than at 100 nM | inflammation and cartilage protection [13]: significantly reduce inflammation and protect cartilage | toxicity of high multi-dose regimen [13]: systemic toxicity in vital organs

1:2 mAv: multi-arm Avidin containing two biotinylated 8-arm PEGs
Zeta potential (ζ) [2]: 20.3 ± 0.3 mV | Diameter (net size) [3]: ~7.6 nm

Av-Dex: Avidin covalently conjugated with 4 moles of Dexamethasone using its four biotin binding sites
efficacy of single low dose IA injection [14]: suppressed injury induced joint inflammation, synovitis, incidence of osteophyte formation and restored trabecular properties at 3 weeks significantly greater than free Dex

RRAAAARRAAAARRAAAARR [CPC+8]
uptake by chondrocytes [15]: not uptaken by the chondrocytes
